# Source: patent US6890361B2, “Modification of printed and dyed materials” (Novozymes North America, Inc., priority 2001, dated 2005)
# Tests used:
# [1] = UV-vis absorbance of disperse dyes dissolved in acetone (reference); assay type: physicochemical; conditions: dye concentration 50 mg/l
# [2] = Alkaline (NaOH) treatment of disperse dye suspension, UV-vis absorbance of solubilized dye; assay type: physicochemical; parameters: key: #: Means absorbance was not detectable by UV-vis spectrometer due to the turbidity of the suspension; conditions: in water, [Dye] = 50 mg/L, Table 3
# Procedure: This procedure was repeated for the alkaline treatment at 80° C.
# [3] = test system: cutinase; conditions: Table 3
# Procedure: 5 mg/ml dye stock (suspension in 20 mM pH8 phosphate buffer) was made for each commercial dye. Since the absorbance of an opaque dye suspension cannot be detected by UV-vis spectrometer, these fives dyes were dissolved in acetone in the concentration of 50˜100 mg/L and the absorbance of each dye solution was measured as reference (see Table 1).
# After 10 min. preheating in waterbath, each sample was dosed with 62.5 mg/L cutinase and incubated for 10 min. The samples were then taken out for UV-vis measurement.
smiles,measurement,setting,value
CCC(=O)Nc1cc(N(CCOC(C)=O)CCOC(C)=O)ccc1N=Nc1ccc([N+](=O)[O-])cc1Cl [Disperse Red 167],Abs@λ max,[1],1.23
same,NaOH Treated (70 C.) Abs@λ_max,[2]; 70 C.,#
same,NaOH Treated (80 C.) Abs@λ_max,[2]; 80 C.,#
same,effect of cutinase treatment on dye solubility (in words),[3]; cutinase treated,increase in dye solubility
same,Cutinase Treated (70 C.) Abs@λ_max,"[3]; in water, [Dye] = 50 mg/L, λ_max 480 nm",0.4249 AU
